Non-standard residues stand in square brackets, D forms with d. Residues, ends and D or L forms follow the SMILES beside them. *: point of attachment. IRDye800CW = CC1(C)C(/C=C/C2=C(Oc3ccc(S(=O)(=O)O)cc3)C(=C/C=C3/N(CCCCS(=O)(=O)O)c4ccc(S(=O)(=O)O)cc4C3(C)C)/CCC2)=[N+](CCCCCC(=O)*)c2ccc(S(=O)(=O)[O-])cc21; Phe(4-I) = N[C@@H](Cc1ccc(I)cc1)C(=O)O; Fmoc = O=C(OCC1c2ccccc2-c2ccccc21)*
Experiments:
[1] = test system: MDA-MB-231 fat pad tumors; test: Optical imaging of fat pad breast cancer tumors; assay type: in vivo, mouse; conditions: 40 nmol, images 24 hours after injection
Procedure: In one of these mice with two such tumors, after the tumors grew to about 1 cm diameter, the mouse was injected with 40 nmol of f-f-HN17-IR800.
A second orthotopic xenograft was used to examine the ability of 4Iph-HN18-IR800 to accumulate at the site of the orthotopic xenograft for breast cancer using MBA-MD-231 triple negative human breast cancer cells. MBA-MD-231 cells were implanted into two of the fat pads nude female mice. In one of these mice with two such tumors, after the tumors grew to about 1 cm diameter, the mouse was injected with 40 nmol of f-HN18-IR800, and the images were recorded 24 hours later using a FluOptics Fluobeam optical surgical imager (FIG. 9B).

HNSCC cell lines = conditions: 2.6 uM for 48 h; cited from earlier work
HNSCC cells = conditions: cited from earlier work
[2] = FBS protein binding assay; conditions: 25 μM agent in 100% FBS
Cal 27 xenograft tumors = test: In vivo imaging of mice bearing Cal 27 flank xenograft tumors; parameters: species or system mouse; conditions: 40 nmol i.v.; for tumor to muscle contrast ratio, 2 mm slices / tumor to muscle contrast ratio, whole tumor: 8 h; for tumor to muscle contrast ratio, 2 mm slices / tumor to muscle contrast ratio, whole tumor / tumor to muscle ratio, 2 mm thickness / tumor to muscle ratio, whole tumor / tumor to muscle signal ratio, 2 mm thickness tumor / tumor to muscle signal ratio, whole tumor: ex vivo; for tumor to muscle ratio, 2 mm thickness / tumor to muscle ratio, whole tumor: 24 h; for tumor to muscle signal ratio, 2 mm thickness tumor / tumor to muscle signal ratio, whole tumor: 48 h
Cal 27 cells [3] = test: Fluorescence microscopy assay with Cal 27 cells; assay type: cell-based, human; conditions: 10 μM, 1 h and 24 h incubation
Excerpt: The chamber slide scaffold was then removed. […] FBS protein binding assay.

[4] = Blood clearance and urine accumulation in mice; assay type: in vivo, mouse; conditions: for total blood fluorescence (% ID/blood) / blood clearance: mice, 40 nmol i.v.; for blood clearance: 24 h
Procedure: Mice urine was collected until 3 h p.i. […] Blood volume was calculated based upon mouse weight. Fluorescence change in blood was plotted versus time using Microsoft Excel software. All data are presented as mean (SD). A Student's t-test (Microsoft Excel Software) was employed to analyze the difference between two points.

Cal 27 cells [5] = test: Cell uptake in cultured Cal 27 cells (fluorescence of cell lysates, plate reader); assay type: cell-based, human; conditions: for relative cell uptake: Cal 27 cells, 2 h incubation, 0.625-10 μM, normalized to f-HN1-IR800 at 10 μM
[6] = mouse, serum
[7] = test system: TT and MZ-CRC1 orthotopic xenografts; test: NIRF imaging of MTC orthotopic xenografts; assay type: in vivo, mouse; conditions: 40 nmoles tail vein
Procedure: Cells were treated with 0.25% Trypsin EDTA to remove from culture dishes. Cells were rinsed and resuspended in 1× PBS at 5×10^7 cells/mL and kept on ice. Athymic nude mice (˜5-6 weeks, TVSR) were anesthetized with isofluorane and skin sterilized by use of 4% chlorhexidine (Henry Schein Animal Health, Columbus, Ohio). A sterile field was established and a vertical cervical incision was made. Visualization was achieved by use of a dissecting microscope. Strap muscles and submandibular glands were separated and reflected, respectively, using blunt dissection. Once trachea and thyroid were adequately visualized ten microliters of cell suspension was injected into the target thyroid lobe using an insulin syringe needle (27 ga, Terumo, Somerset, N.J., USA). Submandibular tissue was re-approximated and the incision was closed by use of 6-0 absorbable surgical sutures. Mice were allowed to recover from anesthesia, returned to their cage and supplied with analgesics (ibuprofen 2 mg/mL) for seven days. All animal studies were done under protocols approved by The Ohio State University Laboratory Animals Recourse.
40 nmoles of 4Iph-IIN18-IR800 were into the animal via tail vein injection. The animals were imaged using both a CRi Maestro white light excitation imager (CRi Inc., Woburn, Mass., USA) and a laser excitation Fluobeam™ 800 MR imaging system (Fluoptics, Grenoble, France). Tumors and equal volume of muscle tissue excised and compared for fluorescence.

[8] = test system: TT and MZ-CRC1 flank xenografts; test: NIRF imaging of MTC subcutaneous flank xenografts; assay type: in vivo, mouse
Procedure: Cells were removed from the […] tissue culture dish by incubation with 0.25% trypsin EDTA (Gibco). Cells were rinsed in 1× PBS, and resuspended at 1×10^7 cells/mL in 1× PBS. For each of two cell lines (TT and MZ-CRC1) one million cells of each cell line were then combined with 100 μL of matrigel and injected into separate flanks (TT-right; MZ-CRC1 left) of athymic nude mice (5 weeks old, obtained from Target Validation Shared Resource at The Ohio State University). Development of tumors was monitored by visual examination until volumes can be determined by caliper measurements. Tumor volumes were determined using the formula: Tumor volume=1/2×(length×width^2). Once both tumors reached a minimum volume of 150 mm^3 the animals were injected with 40 nmoles of 4Iph-HN18-IR800 via tail-vein injection. Animals were imaged using CRi Maestro at three, six, 24, 36 and 48 hours following the injection.
Forty-eight hours after injection the animals were euthanized and skinned for imaging. The tumors along with internal organs were removed for imaging. The animals were imaged using both a CRi Maestro white light excitation imager (CRi Inc., Woburn, Mass., USA) and a laser excitation Fluobeam™ 800 NIR imaging system (Fluoptics, Grenoble, France). Comparisons between tissues were made by placing all tissues relevant to the comparison in the same image to equalize exposure time.

[9] = Molar fluorescence emission; assay type: physicochemical; conditions: when serum proteins are present
MTC cells = test: Fluorescence microscopy of MTC cells in vitro; assay type: cell-based, human
Cal 27 cells [10] = test: Cell viability of Cal 27 cells (Resazurin); assay type: cell-based, human
Cal 27 cells [11] = test: Confocal microscopy / FACS of live unfixed Cal 27 cells (internalization and mechanism); conditions: for cellular localization by confocal microscopy: live Cal 27 cells

With TRLPNSNHIKR2QGL [f-HN17-IR800] the “localization in breast cancer tumors” value [1] was “localization of the f-HN17-IR800 in the tumors”.

In the case of NQHSKNTLLIGP [HNJ], the cell internalization (HNSCC cell lines) is given as “negative internalization”.

In the case of LNKQTHGLIPNS [HNscr], the “uptake compared with HN1” value (HNSCC cells) is given as “did not differ significantly in uptake from HN1”.

In the case of `CC[C@H](C)[C@H](NC(=O)[C@H](CC(N)=O)NC(=O)[C@H](CC(C)C)NC(=O)[C@@H]1CCCN1C(=O)[C@H](CO)NC(=O)[C@@H](N)[C@@H](C)O)C(=O)N[C@@H](Cc1c[nH]cn1)C(=O)N[C@@H](CC(N)=O)C(=O)NCC(=O)N[C@@H](CCC(N)=O)C(=O)N[C@@H](CCCCNC(=O)CCCCC[N+]1=C(/C=C/C2=C(Oc3ccc(S(=O)(=O)O)cc3)C(=C/C=C3/N(CCCCS(=O)(=O)O)c4ccc(S(=O)(=O)O)cc4C3(C)C)/CCC2)C(C)(C)c2cc(S(=O)(=O)[O-])ccc21)C(=O)N[C@@H](CC(C)C)C(N)=O` [HN1-IR800] (H-TSPLNIHNGQK(IRDye800CW)L-NH2; C-terminus assumed), the “bound to FBS” value [2] is reported as ~52%, the “tumor to muscle contrast ratio, 2 mm slices” value (Cal 27 xenograft tumors) is reported as 4.0 and the “tumor to muscle contrast ratio, whole tumor” value (Cal 27 xenograft tumors) is reported as 3.9. The “tumor to muscle ratio, 2 mm thickness” value (Cal 27 xenograft tumors) was 4.6, the “tumor to muscle ratio, whole tumor” value (Cal 27 xenograft tumors) was 4.7 and the “tumor to muscle signal ratio, 2 mm thickness tumor” value (Cal 27 xenograft tumors) was 4.2. The “tumor to muscle signal ratio, whole tumor” value (Cal 27 xenograft tumors) was 6.3, the “fluorescent signal at 800 nm in cells” value (Cal 27 cells [3]) was “little fluorescent signal” and the “fluorescent signal at 800 nm in cells” value (Cal 27 cells [3]; listed as HN-1-IR800) was “little to no fluorescence in cells”. The “total blood fluorescence (% ID/blood)” value ([4]; 5 min) was 9.7%, the “total blood fluorescence (% ID/blood)” value ([4]; 30 min) was 2.8% and the “total blood fluorescence (% ID/blood)” value ([4]; 1 h) was 2.1%. The “total blood fluorescence (% ID/blood)” value ([4]; 3 h) was 0.3%, the blood clearance [4] was “nearly complete clearance by 24 h” and the “concentration at which agent uptake by the cells was approximately saturated” value (Cal 27 cells [5]) was ~10 µM.

With NRQHSKR2NTLLIGP [f-HN-J-IR800] the relative cell uptake (Cal 27 cells [5]) was “increased the uptake significantly”.

In the case of `CC[C@H](C)[C@H](NC(=O)[C@H](Cc1c[nH]cn1)NC(=O)[C@H](CC(N)=O)NC(=O)[C@H](CO)NC(=O)[C@H](CC(N)=O)NC(=O)[C@@H]1CCCN1C(=O)[C@H](CC(C)C)NC(=O)[C@H](Cc1ccc(I)cc1)NC(=O)OCC1c2ccccc2-c2ccccc21)C(=O)N[C@@H](CCCCNC(=O)CCCCC[N+]1=C(/C=C/C2=C(Oc3ccc(S(=O)(=O)O)cc3)C(=C/C=C3/N(CCCCS(=O)(=O)O)c4ccc(S(=O)(=O)O)cc4C3(C)C)/CCC2)C(C)(C)c2cc(S(=O)(=O)[O-])ccc21)C(=O)N[C@@H](CCC(N)=O)C(=O)NCC(=O)N[C@@H](CC(C)C)C(N)=O` [4Iphf-HN18-IR800] (Fmoc-[Phe(4-I)]LPNSNHIK(IRDye800CW)QGL-NH2), the half-life [6] is reported as 5.29 h, the “fluorescence at MTC orthotopic xenograft” value ([7]; listed as 4Iph-HN18-IR800) is reported as “principally found in the orthotopic xenograft” and the “fluorescence at MTC orthotopic xenograft” value ([7]; listed as 4Iphf-HN18-IR800HN18) is reported as “allows imaging of orthotopic xenografts of MTC”. The “localization in MTC flank xenografts” value ([8]; 40 nmoles tail vein, from 24 h to 48 h) was “increased contrast was observed with background at the site of the xenografts”, the accumulation in kidneys ([8]; flank xenograft mice) was “accumulate in kidneys” and the “fluorescence of muscle tissue (thigh) compared to xenografts” value ([8]; same animal) was “very little fluorescence compared to xenografts”. The “molar fluorescence emission relative to HN1-IR800” value [9] was “approximately 1.5 fold”, the “tumor to muscle contrast ratio, 2 mm slices” value (Cal 27 xenograft tumors) was 3.0 and the “tumor to muscle contrast ratio, whole tumor” value (Cal 27 xenograft tumors) was 3.8. The “tumor to muscle ratio, 2 mm thickness” value (Cal 27 xenograft tumors) was 11.7, the “tumor to muscle ratio, whole tumor” value (Cal 27 xenograft tumors) was 8.8 and the “tumor to muscle signal ratio, 2 mm thickness tumor” value (Cal 27 xenograft tumors) was 17.5. The “tumor to muscle signal ratio, whole tumor” value (Cal 27 xenograft tumors) was 11.1, the “time of best contrast of tumor to body background” value (Cal 27 xenograft tumors; whole mice, 3-48 h) was 48 h and the “fluorescent signal at 800 nm in cells” value (Cal 27 cells [3]) was “bright at both 1 h and 24 h”. The “fluorescent signal at 800 nm in cells” value (Cal 27 cells [3]; listed as 4Iph-HN18-IR800) was “bright red signal inside of the cells”, the “total blood fluorescence (% ID/blood)” value ([4]; 5 min) was 37.1% and the “total blood fluorescence (% ID/blood)” value ([4]; 30 min) was 22.2%. For the same molecule, the “total blood fluorescence (% ID/blood)” value ([4]; 1 h) was 14.1%, the “total blood fluorescence (% ID/blood)” value ([4]; 3 h) was 9.6% and the blood clearance [4] was “nearly complete clearance by 24 h”. The C0 ([4]; mouse, in vivo, 40 nmol intravenous dose, estimated, read-out: initial plasma concentration) was ~50 µM and the “fluorescence in MTC cells in vitro” value (MTC cells) was “fluorescence in treated cells coincided with localization of mitochondria”.

For `CC1(C)C(=CC=C2CCCC(C=CC3=[N+](CCCCCC(=O)[O-])c4ccc(S(=O)(=O)[O-])cc4C3(C)C)=C2Oc2ccc(S(=O)(=O)[O-])cc2)N(CCCCS(=O)(=O)[O-])c2ccc(S(=O)(=O)[O-])cc21.[Na+].[Na+].[Na+].[Na+]` [IRDye800CW, reference compound], the “fluorescent signal at 800 nm in cells” value (Cal 27 cells [3]) was “little fluorescent signal” and the “fluorescent signal at 800 nm in cells” value (Cal 27 cells [3]; listed as IR800 dye) was “little to no fluorescence in cells”.

In the case of (4-I)FRLPNSNHIKR3QGL [4Iphf-HN18-Cy5], the cell viability (Cal 27 cells [10]) is reported as “does not affect cell viability”, the “entry of propidium iodide on simultaneous incubation” value (Cal 27 cells [11]; 5 uM for 1 h, live unfixed Cal 27 cells) is reported as “the propidium iodide does penetrate the Cal 27 cell membrane” and the “effect of lowering temperature on membrane binding and penetration” value (Cal 27 cells [11]; 37 degrees C. vs 4 degrees C.) is reported as “slows down all processes including membrane binding and penetration”. For the same molecule, the “time to visible penetration into the cytosol” value (Cal 27 cells [11]; Cal 27 live unfixed cells) was ≤ 5 min, the “cellular localization by confocal microscopy” value (Cal 27 cells [11]) was “clearly located inside the HNSCC cancer cells” and the “cellular localization by confocal microscopy” value (Cal 27 cells [11]; listed as 4Iphf-HN18-CY5) was “located in the cytosol”. The “internalization in the presence of endocytosis inhibitors” value (Cal 27 cells [11]; sodium azide, Nocodazole, MβCD, Chloropromazine, amiloride) was “did not stop internalization”.

With NQHSKR2NTLLIGP [HN-J-IR800] the “fluorescence at MTC orthotopic xenograft” value [7] was “little to no fluorescence”, the “fluorescent signal at 800 nm in cells” value (Cal 27 cells [3]) was “little fluorescent signal” and the “fluorescent signal at 800 nm in cells” value (Cal 27 cells [3]; listed as HNJ-IR800) was “little to no fluorescence in cells”. The relative cell uptake (Cal 27 cells [5]) was “poor uptake”.
